Laboratory results: US9006177B2 (Advinus Therapeutics Limited, priority 2010, dated 2015)

Each compound was assayed against T1, Human A2A adenosine receptor (Homo sapiens, UniProt P29274) (assay: Radioligand binding for A2A adenosine receptor ([3H]-ZM-241385 competition, HEK-A2A membranes)). Conditions: HEK-293 membranes, 2 nM [3H]-ZM-241385, read-out: A2A Cell based Functional Ki*.
T1 construct: expressed in transfected cells
Description: […]

T1 sequence (P29274 whole entry): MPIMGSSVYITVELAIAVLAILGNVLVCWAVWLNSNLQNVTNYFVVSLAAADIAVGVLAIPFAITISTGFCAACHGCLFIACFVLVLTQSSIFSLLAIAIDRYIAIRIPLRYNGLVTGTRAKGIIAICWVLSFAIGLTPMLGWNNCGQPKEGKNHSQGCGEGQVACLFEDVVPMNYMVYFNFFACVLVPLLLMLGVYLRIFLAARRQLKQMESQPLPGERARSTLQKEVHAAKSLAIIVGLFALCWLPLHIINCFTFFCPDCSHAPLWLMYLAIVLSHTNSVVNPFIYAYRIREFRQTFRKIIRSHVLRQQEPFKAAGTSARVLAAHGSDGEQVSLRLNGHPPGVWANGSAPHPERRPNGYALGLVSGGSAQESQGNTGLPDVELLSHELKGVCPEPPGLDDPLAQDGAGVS

Ki [nM] | SMILES
0.1 to 10 | CCn1c(=O)n(CCn2cc(-c3ccc(F)cc3F)cn2)c2nc(N)n3nc(-c4ccco4)nc3c21 [Example D3]
0.1 to 10 | Nc1nc2c(c3nc(-c4ccco4)nn13)n(CC1CC1)c(=O)n2CCn1cc(C(=O)O)cn1 [Example E1, 1-[2-[5-Amino-1-(cyclopropylmethyl)-8-(2-furyl)-2-oxo-[1,2,4]triazolo[5,1-f]purin-3-yl]ethyl]pyrazole-4-carboxylic acid]
10 to 100 | CCn1c(=O)n(CCN2CCN(c3ccc(F)cc3F)CC2)c2nc(N)n3nc(-c4ccco4)nc3c21 [Example G2]
0.1 to 10 | Nc1nc2c(c3nc(-c4ccco4)nn13)n(CC(F)(F)F)c(=O)n2CCN1CCN(c2ccc(F)cc2F)CC1 [Example H2, 5-Amino-3-{2-[4-(2,4-difluoro-phenyl)-piperazin-1-yl]-ethyl}-8-furan-2-yl-1-(2,2,2-trifluoro-ethyl)-1,3-dihydro-[1,2,4]triazolo[5,1-f]purin-2-one]
0.1 to 10 | COCCOc1ccc(N2CCN(CCn3c(=O)n(C)c4c3nc(N)n3nc(-c5nccs5)nc43)CC2)cc1 [Example M1, 5-Amino-3-[2-[4-[4-(2-methoxyethoxy)phenyl]piperazin-1-yl]ethyl]-1-methyl-8-thiazol-2-yl-[1,2,4]triazolo[5,1-f]purin-2-one]
10 to 100 | Cn1c(=O)n(CCN2CCN(C(=O)CC3CC3)CC2)c2nc(N)n3nc(-c4nccs4)nc3c21 [Example M3, 5-Amino-3-[2-[4-(2-cyclopropylacetyl)piperazin-1-yl]ethyl]-1-methyl-8-thiazol-2-yl-[1,2,4]triazolo[5,1-f]purin-2-one]
0.1 to 10 | Cc1cnc2c(c1)CN(CCn1c(=O)n(C)c3c1nc(N)n1nc(-c4nccs4)nc31)CC2 [Example M6, 5-Amino-1-methyl-3-[2-(3-methyl-7,8-dihydro-5H-1,6-naphthyridin-6-yl)ethyl]-8-thiazol-2-yl-[1,2,4]triazolo[5,1-f]purin-2-one]

More lines, now with the values behind:

SMILES | Ki [nM]
COCCOc1ccc(N2CCN(CCn3c(=O)n(C)c4c3nc(N)n3nc(-c5ccco5)nc43)CC2)cc1 [Example A1] | 0.1 to 10
Cc1ccc(N2CCN(CCn3c(=O)n(C)c4c3nc(N)n3nc(-c5ccco5)nc43)CC2)cc1 [Example A7, 5-Amino-8-(2-furyl)-1-methyl-3-[2-[4-(p-tolyl)piperazin-1-yl]ethyl]-[1,2,4]triazolo[5,1-f]purin-2-one] | 0.1 to 10
COc1ccc(N2CCN(CCn3c(=O)n(C)c4c3nc(N)n3nc(-c5ccco5)nc43)CC2)c(F)c1 [Example A9] | 0.1 to 10
Cn1c(=O)n(CCN2CCN(c3ccc(C(C)(C)O)cc3)CC2)c2nc(N)n3nc(-c4ccco4)nc3c21 [Example A13] | 0.1 to 10
COCCOc1ccc(N2CCN(CCn3c(=O)n(C)c4c3nc(N)n3nc(-c5ccco5)nc43)CC2)c(F)c1 [Example A31] | 0.1 to 10
Cn1c(=O)n(CCN2CCN(CC3CC3)CC2)c2nc(N)n3nc(-c4ccco4)nc3c21 [Example A36, 5-Amino-3-[2-[4-(cyclopropylmethyl)piperazin-1-yl]ethyl]-8-(2-furyl)-1-methyl-[1,2,4]triazolo[5,1-f]purin-2-one] | 10 to 100
CN(C)S(=O)(=O)N1CCN(CCn2c(=O)n(C)c3c2nc(N)n2nc(-c4ccco4)nc32)CC1 [Example A38, 4-[2-[5-Amino-8-(2-furyl)-1-methyl-2-oxo-[1,2,4]triazolo[5,1-f]purin-3-yl]ethyl]-N,N-dimethyl-piperazine-1-sulfonamide] | 0.1 to 10
Cn1c(=O)n(CCN2CCN(c3ccc(OC4CCOC4)cc3)CC2)c2nc(N)n3nc(-c4ccco4)nc3c21 (stereo not drawn) [Example A39, 5-Amino-8-(2-furyl)-1-methyl-3-[2-[4-(4-tetrahydrofuran-3-yloxyphenyl)piperazin-1-yl]ethyl]-[1,2,4]triazolo[5,1-f]purin-2-one] | 0.1 to 10
Cc1cnc2c(c1)CN(CCn1c(=O)n(C)c3c1nc(N)n1nc(-c4ccco4)nc31)CC2 [Example A42, 5-Amino-8-(2-furyl)-1-methyl-3-[2-(3-methyl-7,8-dihydro-5H-1,6-naphthyridin-6-yl)ethyl]-[1,2,4]triazolo[5,1-f]purin-2-one] | 0.1 to 10
COc1ccc(CCn2c(=O)n(C)c3c2nc(N)n2nc(-c4ccco4)nc32)cc1 [Example A57] | 0.1 to 10
Cn1c(=O)n(CCN2CCN(c3ccc(OC(F)F)cc3)CC2)c2nc(N)n3nc(-c4ccco4)nc3c21 [Example A58, 5-amino-3-[2-[4-[4-(difluoromethoxy)phenyl]piperazin-1-yl]ethyl]-8-(2-furyl)-1-methyl-[1,2,4]triazolo[5,1-f]purin-2-one] | 0.1 to 10
Cn1c(=O)n(CCN2CCN(C(=O)C3CC3)CC2)c2nc(N)n3nc(-c4ccco4)nc3c21 [Example A62, 5-Amino-3-[2-[4-(cyclopropanecarbonyl)piperazin-1-yl]ethyl]-8-(2-furyl)-1-methyl-[1,2,4]triazolo[5,1-f]purin-2-one] | 0.1 to 10
Cn1c(=O)n(CCN2CCN(C(=O)CC3CC3)CC2)c2nc(N)n3nc(-c4ccco4)nc3c21 [Example A63, 5-Amino-3-[2-[4-(2-cyclopropylacetyl)piperazin-1-yl]ethyl]-8-(2-furyl)-1-methyl-[1,2,4]triazolo[5,1-f]purin-2-one] | 10 to 100
CCOc1ccc(N2CCN(CCn3c(=O)n(CC4CC4)c4c3nc(N)n3nc(-c5ccco5)nc43)CC2)cc1 [Example C1, 5-Amino-1-(cyclopropylmethyl)-3-[2-[4-(4-ethoxyphenyl)piperazin-1-yl]ethyl]-8-(2-furyl)-[1,2,4]triazolo[5,1-f]purin-2-one] | 0.1 to 10
